According to PubChem BioAssay (NCI):
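In this assay, cells in 96-well plates receive the compound at five concentrations for 48 hours. Endpoints are linearly interpolated between the surrounding concentrations. The concentration for 50% growth inhibition is given as GI50. At the TGI there is no net growth.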

Tests used:
Assay in all cases: NCI-60 cell line screen, 48 h
[1] = tested on: NCI-H460 lung
[2] = tested on: NCI-H522 lung
[3] = tested on: K-562 leukemia
[4] = tested on: COLO 205 colon
[5] = tested on: LOX IMVI melanoma
[6] = tested on: NCI-H226 lung
[7] = tested on: OVCAR-5 ovarian
[8] = tested on: BT-549 breast
[9] = tested on: EKVX NSCLC
[10] = tested on: MCF7 breast

Row | Compound | TGI [1] [µM] | TGI [2] [µM] | TGI [3] [µM] | TGI [4] [µM] | GI50 [1] [µM] | GI50 [5] [µM] | TGI [5] [µM] | GI50 [6] [µM] | TGI [6] [µM] | GI50 [7] [µM] | TGI [7] [µM] | GI50 [8] [µM] | TGI [8] [µM] | GI50 [3] [µM] | GI50 [4] [µM] | GI50 [9] [µM] | TGI [9] [µM] | GI50 [2] [µM] | TGI [10] [µM] | GI50 [10] [µM]
1 | CC1(C)Oc2ccccc2[N+]([O-])=C1c1ccccc1 | > 100 | > 100 | > 100 | > 100 | – | – | – | – | – | – | – | – | – | – | – | – | – | – | – | –
2 | Cc1nc2ccccc2c(/C=C/c2ccccc2)c1C(=O)/C=C/c1ccccc1 | 4.88 | – | > 100 | 4.44 | 1.88 | 1.77 | 3.19 | 2.16 | 5.27 | 1.93 | 3.52 | 1.73 | 3.67 | 2.84 | 1.82 | 1.75 | 3.28 | – | – | –
3 | N/C(=N\N=C\c1ccc(O)c(O)c1)NO | > 100 | > 100 | > 100 | > 100 | – | – | > 100 | – | > 100 | – | > 100 | – | – | – | – | – | > 100 | – | – | –
4 | CCC(C)(C)NS(=O)(=O)c1ccccc1 | > 100 | – | > 100 | – | – | – | – | – | – | – | > 100 | – | – | – | – | – | > 100 | – | – | –
5 | CCOC(=O)NC(=O)c1cn(C2OC(COC(=O)CCCCCCCCC(=O)OCC3OC(n4cc(C(=O)NC(=O)OCC)c(=O)[nH]c4=O)C4OC(C)(C)OC34)C3OC(C)(C)OC32)c(=O)[nH]c1=O (stereo not given) | > 100 | – | > 100 | – | – | – | > 100 | – | > 100 | – | > 100 | – | – | – | – | – | > 100 | – | – | –
6 | N.N.NCCCCCN.O=C([O-])CC(=O)[O-].O=C([O-])CC(=O)[O-].[Pt+4].[Pt+4] | > 100 | > 100 | > 100 | > 100 | 17.4 | > 100 | > 100 | > 100 | > 100 | > 100 | > 100 | – | – | > 100 | > 100 | > 100 | > 100 | > 100 | – | –
7 | CCCCCN(CCCCC)C(=O)[C@H](CCC(=O)OCc1ccccc1)NC(=O)c1cc2ccccc2[nH]1 | > 100 | > 100 | > 100 | > 100 | – | – | > 100 | – | > 100 | – | > 100 | – | – | – | – | – | > 100 | – | – | –
8 | Cc1ccc(-c2cc(=O)c3cc(C)c(C)c(C(=O)O)c3o2)cc1[N+](=O)[O-] | > 100 | > 100 | > 100 | > 100 | – | – | > 100 | – | > 100 | – | > 100 | – | – | – | – | – | > 100 | – | – | –
9 | COc1c(Cl)[c]([Hg][O]C(C)=O)c(NCC(C)=O)c(OC)[c]1[Hg][O]C(C)=O | > 100 | 4 | > 100 | 54.5 | 33.2 | 33.4 | > 100 | 18.7 | 43.1 | 38.7 | 90.9 | – | – | 11.8 | 22 | 27.2 | 65.2 | 1.37 | – | –
10 | C/C=C(\C)C(=O)N1c2ccccc2CC1c1c(C)[nH]c2ccccc12 (stereo not given) | > 100 | > 100 | > 100 | 74.5 | – | – | > 100 | – | > 100 | – | > 100 | – | – | – | – | – | > 100 | – | – | –
11 | CC(C)C1NC(=O)[C@H](C)OC(=O)[C@@H](C(C)C)NC(=O)[C@@H](C)OC(=O)C(C(C)C)NC(=O)[C@H](C)OC1=O (stereo not given in full) | > 100 | > 100 | > 59.3 | > 94.8 | – | – | > 79 | – | > 100 | – | > 100 | – | – | – | – | – | > 100 | – | – | –
12 | Nc1nc(CC2(O)CCCCC2)cc(-c2ccccc2)n1 | > 66 | > 100 | > 100 | 32.9 | – | – | > 55.5 | – | > 61.9 | – | 54.4 | – | – | – | – | – | > 100 | – | – | –
13 | O=C(COC(=O)c1cccc2c(=O)c3ccccc3[nH]c12)Nc1ccc(S(=O)(=O)Nc2ncccn2)cc1 | > 100 | 58.2 | 90.7 | > 100 | – | – | > 100 | – | > 100 | – | > 100 | – | – | – | – | – | > 100 | – | – | –
14 | O=C(CC1SC(=Nc2ccccc2Cl)NC1=O)Nc1ccc(Cl)cc1 (stereo not given) | > 100 | – | > 100 | 48.7 | – | – | > 100 | – | – | – | > 100 | – | – | – | – | – | > 100 | – | – | –
15 | COc1cc2ccc3c4cc(OC)c(OC(C)C)cc4c[n+](C)c3c2cc1OC | > 100 | 70.1 | > 100 | 36.5 | – | – | > 100 | – | > 100 | – | > 100 | – | – | – | – | – | > 100 | – | – | –
16 | COc1ccc(/C=C2\CCc3ccccc3C2=O)cc1OC | > 100 | 47 | > 100 | 47.2 | – | – | – | – | – | – | > 100 | – | – | – | – | – | > 100 | – | – | –
17 | [N-]=[N+]=NC1C2CC3CC(C2)CC1C3 (stereo not given) | > 100 | > 100 | > 100 | > 100 | – | – | > 100 | – | > 100 | – | > 100 | – | – | – | – | – | > 100 | – | – | –

Row | Compound | TGI [1] [µM] | TGI [2] [µM] | TGI [3] [µM] | TGI [4] [µM] | GI50 [1] [µM] | GI50 [5] [µM] | TGI [5] [µM] | GI50 [6] [µM] | TGI [6] [µM] | GI50 [7] [µM] | TGI [7] [µM] | GI50 [8] [µM] | TGI [8] [µM] | GI50 [3] [µM] | GI50 [4] [µM] | GI50 [9] [µM] | TGI [9] [µM] | GI50 [2] [µM] | TGI [10] [µM] | GI50 [10] [µM]
18 | COc1ccc2c(c1OC)C(C=C(c1ccccc1)c1ccccc1)CN(C)C2 (stereo not given) | 31.9 | 41.5 | 25.1 | 28.5 | – | – | – | – | 98.6 | – | 61.6 | – | – | – | – | – | > 100 | – | – | –
19 | CN=C(N)NC | > 100 | > 100 | > 100 | > 100 | – | – | > 100 | – | > 100 | – | > 100 | – | – | – | – | – | > 100 | – | – | –
20 | C/C(=N\NS(=O)(=O)c1c(C)cc(C)cc1C)c1ccc[n+]([O-])n1 | > 100 | 21 | 30.2 | – | – | – | – | – | – | – | 56.1 | – | – | – | – | – | 26 | – | – | –
21 | CNC(=S)N(C1CCCCC1)C1CCCCC1 | > 100 | – | > 100 | > 100 | – | – | > 100 | – | > 100 | – | > 100 | – | – | – | – | – | > 100 | – | > 100 | –
22 | CCOc1ccc(N=Cc2ccc3ccccc3n2)cc1 | > 100 | > 100 | > 100 | > 100 | – | – | > 100 | – | > 100 | – | > 100 | – | – | – | – | – | > 100 | – | – | –
23 | CC(=O)Oc1cc(Cl)c(OC(C)=O)c2c(OC(C)=O)c(C)c(O[Si](C)(C)C(C)(C)C)cc12 | 16.5 | 19 | 18.2 | 32.5 | – | – | 12.9 | – | – | – | – | – | – | – | – | – | 33.9 | – | – | –
24 | O=c1c(-c2nc3ccccc3[nH]2)cc2ccccc2n1Cc1cn(Cc2ccccc2Cl)nn1 | 3.88 | 7.98 | 12.9 | – | 2.01 | – | – | 2.3 | 6.99 | 2.1 | 4.78 | – | – | 3.33 | – | 2.74 | 20.2 | 2.24 | 3.77 | 1.78
25 | Fc1ccc2c(c1)cc1ccc3cccc4ccc2c1c34 | – | > 100 | > 100 | > 100 | – | – | > 100 | – | > 100 | – | > 100 | – | – | – | – | – | > 100 | – | – | –
26 | Cc1nc(-n2nc(-c3ccccc3)cc2-c2ccccc2)sc1C(=O)/C=C/c1ccc(Cl)cc1 | 76.5 | 25.9 | – | 30.1 | – | – | 27.9 | – | 42.1 | – | > 100 | – | – | – | – | – | > 100 | – | – | –
27 | COC(=O)c1ccc(/C=C/S(=O)(=O)c2ccccc2)cc1 | > 100 | > 100 | > 100 | > 100 | – | – | > 100 | – | > 100 | – | > 100 | – | – | – | – | – | > 100 | – | – | –
28 | CC(CCC(=O)O)c1ccc(Br)cc1 (stereo not given) | > 100 | > 100 | > 100 | > 100 | – | – | > 100 | – | > 100 | – | > 100 | – | – | – | – | – | > 100 | – | – | –
29 | CC(C)c1cc(C(=O)[O-])c(O)c(C(C)C)c1.CC(C)c1cc(C(=O)[O-])c(O)c(C(C)C)c1.CC(C)c1cc(C(=O)[O-])c(O)c(C(C)C)c1.CC(C)c1cc(C(=O)[O-])c(O)c(C(C)C)c1.CC(C)c1cc(C(=O)[O-])c(O)c(C(C)C)c1.CC(C)c1cc(C(=O)[O-])c(O)c(C(C)C)c1.[Cu+2].[Mn+2].[Mn+2] | 32.2 | 25.1 | 50.4 | 25.6 | 15.8 | 17 | 36.3 | – | – | 28.2 | 49.3 | – | – | 12.8 | 10.9 | 23.3 | > 100 | 10.9 | – | –
30 | CC(=O)OC1(C#N)CC2OC1C1N=NN(C(=O)OC(C)(C)C)C21 (stereo not given) | > 100 | > 100 | > 100 | > 100 | – | – | > 31.6 | – | > 100 | – | > 100 | – | – | – | – | – | > 100 | – | – | –
31 | CCCCCCCCCCCCC(NC(C)=O)(C(=O)OCC)C(=O)OCC | 24 | – | > 100 | 26.3 | 7.65 | 11.8 | 25.2 | 12.5 | 27.2 | 13.7 | 27.3 | – | – | 7.55 | 12.8 | 6.99 | 26.1 | – | 21.2 | 7.41
32 | CCN(CC)/[N+]([O-])=N/OCC(C)O (stereo not given) | > 100 | > 100 | > 100 | – | – | – | > 100 | – | > 100 | – | > 100 | – | – | – | – | – | > 100 | – | – | –
33 | CC(C)(C)C1CCC(=O)C(C(O)CC2CC(=O)N(c3ccccc3)C(=O)C2)C1 (stereo not given) | > 100 | > 100 | > 100 | > 100 | – | – | > 100 | – | > 100 | – | > 100 | – | – | – | – | – | > 100 | – | – | –
